Laboratory results taken from paper PMC9315981, “N-Phenacyldibromobenzimidazoles—Synthesis Optimization and Evaluation of Their Cytotoxic Activity” (Molecules, 2022).
Like-named read-outs stand apart in the source and are kept apart here.

Experiments:
[1] = tested on: CCRF-CEM (acute lymphoblastic leukemia); set-up: method as in PMID 28340404; conditions: determined previously; read-out: EC50 ± SD, CCRF-CEM; cited from earlier work
[2] = tested on: MCF-7 (breast adenocarcinoma); set-up: method as in PMID 28340404; conditions: determined previously; read-out: EC50 ± SD, MCF-7; cited from earlier work
[3] = tested on: A-549 (lung adenocarcinoma); experiment: MTT-based viability assay, A-549; type: cell-based; conditions: Homo sapiens, A549, 48 h of treatment, read-out: EC50 ± SD, A-549
Experimental: (§1) To evaluate the cytotoxic activity of compounds 4a–j and 5a–5j, we performed an MTT test for three tumor cell lines, i.e.,: MCF-7 (breast adenocarcinoma), A-549 (lung adenocarcinoma), CCRF-CEM (acute lymphoblastic leukemia), and one normal cell line, MRC-5 (normal lung fibroblasts). The EC50 values, describing the half maximal effective concentration of each tested compound, were calculated and are summarized in Table 4. The representative sigmoidal dose–response curves are shown in Figure S2 (see Supporting Information S2).
(§2) CCRF-CEM (ECACC 85112105) human acute lymphoblastic leukaemia and MRC-5 pd30 Human fetal lung fibroblasts (ECACC 05090501) were purchased from European Collection of Authenticated Cell Cultures, whereas A-549 (ATCC CCL 185) human lung carcinoma and MCF-7 (ATCC HTB-22) human breast adenocarcinoma cell line were purchased from American Type Culture Collection. A-549 and MCF-7 cell lines were cultured in high glucose DMEM (Biowest) supplemented with 10% fetal bovine serum (Biowest), 2 mM L-glutamine and antibiotics (100 U/mL penicillin, 100 µg/mL streptomycin). CCRF-CEM were cultured in RPMI 1640 supplemented with 10% fetal bovine serum (EuroClone), 2 mM L-glutamine and antibiotics (100 U/mL penicillin, 100 µg/mL streptomycin). MRC-5 pd30 human fibroblasts (ECACC) were cultured in MEME, Minimum Essential Medium Eagle (Merck) supplemented with 10% fetal bovine serum (Merck), 2 mM l-glutamine, antibiotics (100 U mL^−1 penicillin, 100 μg mL^−1 streptomycin, Merck) and 1% non-essential amino-acids (Merck). Cells were grown in 75 cm^2 cell culture flasks (Sarstedt, Nümbrecht, Germany), in a humidified atmosphere of CO2/air (5/95%) at 37 °C. All the experiments were performed in exponentially growing cultures. Stock solution of tested compounds were prepared in DMSO and stored in −20 °C for maximum one month. For the cytotoxicity studies, stock solutions were diluted 200-fold with the proper culture medium to obtain the final concentrations. For cytotoxicity studies 2-fold serial dilutions of the tested compounds were prepared in the proper medium in the range from 3.125 µM to 200 µM.
(§3) After incubation with the test compounds, MTT test was performed as described previously. Optical densities were measured at 570 nm using BioTek microplate reader. All measurements were carried out in a minimum of three replicates.

[4] = tested on: MRC-5 (normal lung fibroblasts); experiment: MTT-based viability assay, MRC-5; type: cell-based; conditions: Homo sapiens, MRC5, 48 h of treatment, read-out: EC50 ± SD, MRC-5
Experimental: as §1, §2, §3

[5] = tested on: CCRF-CEM (acute lymphoblastic leukemia); experiment: MTT-based viability assay, CCRF-CEM; type: cell-based, human; conditions: for EC50: Homo sapiens, CCRF-CEM, MTT, 48 h of treatment, read-out: EC50 ± SD, CCRF-CEM; for SI (selectivity index), CCRF-CEM: SI = EC50 for normal MRC-5 line/EC50 for CCRF-CEM
Experimental: as §1, §2, §3

[6] = tested on: MCF-7 (breast adenocarcinoma); experiment: MTT-based viability assay, MCF-7; type: cell-based, human; conditions: for EC50: Homo sapiens, MCF7, MTT, 48 h of treatment, read-out: EC50 ± SD, MCF-7; for SI (selectivity index), MCF-7: SI = EC50 for normal MRC-5 line/EC50 for MCF-7
Experimental: as §1, §2, §3

[7] = Solubility in DMSO (stock preparation); type: physicochemical
Description: However, among the tested compounds, the highest selectivity index was obtained for 5a (2.04) for MCF-7, respectively.

[8] = tested on: CCRF-CEM cells; experiment: Detection of apoptosis by flow cytometry (annexin V-FITC/PI); type: cell-based, human; conditions: 48 h; for induction of apoptosis: annexin V binding
Experimental: CCRF-CEM cells were seeded in 24-well plates at 2 × 10^5 cells/well and treated with the tested compounds used in 15 µM, 30 µM, and 45 µM concentrations. After exposure to the examined compounds, the cells were collected, centrifugated at 200× g at 4 °C for 5 min, washed twice with cold phosphate–buffered saline (PBS), and subsequently suspended in binding buffer. Subsequently, 100-μL aliquots of the cell suspension were labelled according to the kit manufacturer’s instructions. Briefly, annexin V-fluorescein isothiocyanate, and propidium iodide (BD Biosciences, Pharmingen, San Diego, CA, USA) were added to the cell suspension, and the mixture was vortexed and then incubated for 15 min at RT in the dark. A cold binding buffer (400 μL) was then added and the cells were vortexed again and kept on ice. Flow cytometric measurements were performed within 1 h after labeling. Viable, necrotic, early, and late apoptotic cells were detected by FACSCanto II flow cytometer (BD Biosciences, San Diego, CA, USA) and analysed using BD FACSDiva software.
Figure 2 Effect of compounds 4f, 5g, and 5j on the progression of apoptosis/necrosis in CCRF-CEM. Percentage of viable, early, and late apoptotic, and necrotic cells after 48 h of treatment with the tested compounds (A). Percentage of CCRF-CEM cells in late apoptosis (B). Cells were stained with annexin V-FITC and PI (propidium iodide). Flow cytometry analyses were run on FACSCanto II flow cytometer (BD Biosciences, San Diego, CA, USA) and analysed using BD FACSDiva software. Graphs represent mean values ± s.e.m. *** p < 0.001 relative to control; ns—not significant. Statistical analysis for three to six independent replicates was performed using a one-way ANOVA analysis (GraphPad Software Inc., San Diego, CA, USA).

## Brc1c(Br)c(Br)c2[nH]cnc2c1Br [4,5,6,7-tetrabromo-1H-benzimidazole]
[1]
  EC50: 18.1 ± 0.6 µM
[2]
  EC50: 23.6 ± 0.1 µM
[3]
  EC50: 36.4 ± 0.7 µM

## O=C(Cn1cnc2cc(Br)c(Br)cc21)c1ccccc1 [Compound 4a]
[4]
  EC50: 51.4 ± 1.62 µM
[5]
  EC50: 78.1 ± 5.58 µM
  SI (selectivity index), CCRF-CEM: 0.66
[6]
  EC50: 37.6 ± 3.4 µM
  SI (selectivity index), MCF-7: 1.37
[3]
  EC50: 111 ± 11.7 µM

## O=C(Cn1cnc2cc(Br)c(Br)cc21)c1ccc(F)cc1 [Compound 4b]
[4]
  EC50: 56.1 ± 4.33 µM
[5]
  EC50: 44.1 ± 3.04 µM
  SI (selectivity index), CCRF-CEM: 1.27
[6]
  EC50: 33 ± 2.63 µM
  SI (selectivity index), MCF-7: 1.70
[3]
  EC50: 54.5 ± 1.58 µM

## O=C(Cn1cnc2cc(Br)c(Br)cc21)c1ccc(Cl)cc1 [Compound 4c]
[4]
  EC50: 54.24 ± 0.52 µM
[5]
  EC50: 56.6 ± 4.48 µM
  SI (selectivity index), CCRF-CEM: 0.96
[6]
  EC50: 49.1 ± 5.58 µM
  SI (selectivity index), MCF-7: 1.10
[3]
  EC50: 76.6 ± 3.08 µM

## O=C(Cn1cnc2cc(Br)c(Br)cc21)c1ccc(Br)cc1 [Compound 4d]
[7]
  solubility in DMSO: sparingly soluble in DMSO

## O=C(Cn1cnc2cc(Br)c(Br)cc21)c1ccc(Cl)cc1Cl [Compound 4e]
[5]
  EC50: 61.1 ± 2.76 µM
  SI (selectivity index), CCRF-CEM: 0.94
[6]
  EC50: 60.3 ± 6.2 µM
  SI (selectivity index), MCF-7: 0.95
[3]
  EC50: 67.98 ± 0.41 µM

## O=C(Cn1cnc2cc(Br)c(Br)cc21)c1ccc(Cl)c(Cl)c1 [Compound 4f, 2-(5,6-dibromo-1H-benzimidazol-1-yl)-1-(3,4-dichlorophenyl)ethanone]
[4]
  EC50: 48.5 ± 4.5 µM
[5]
  EC50: 27.5 ± 2.46 µM
  SI (selectivity index), CCRF-CEM: 1.76
[6]
  EC50: 26.4 ± 0.8 µM
  SI (selectivity index), MCF-7: 1.84
[8]; 45 µM
  induction of apoptosis: induced apoptosis effectively
[3]
  EC50: 51.1 ± 2.78 µM

## O=C(Cn1cnc2cc(Br)c(Br)cc21)c1c(Cl)cc(Cl)cc1Cl [Compound 4g]
[4]
  EC50: 13.7 ± 0.63 µM
[6]
  EC50: 36.1 ± 1.47 µM
  SI (selectivity index), MCF-7: 0.38
[3]
  EC50: > 200 µM

## O=C(Cn1cnc2cc(Br)c(Br)cc21)c1ccc(F)cc1F [Compound 4h]
[4]
  EC50: 57.6 ± 0.71 µM
[5]
  EC50: 59.9 ± 4.4 µM
  SI (selectivity index), CCRF-CEM: 0.96
[6]
  EC50: 41.2 ± 3.85 µM
  SI (selectivity index), MCF-7: 1.40
[3]
  EC50: 54.1 ± 4.05 µM

## O=C(Cn1cnc2cc(Br)c(Br)cc21)c1cc(F)ccc1F [Compound 4i]
[4]
  EC50: 47.8 ± 12 µM
[5]
  EC50: 102 ± 8.62 µM
  SI (selectivity index), CCRF-CEM: 0.47
[6]
  EC50: 29.6 ± 2.24 µM
  SI (selectivity index), MCF-7: 1.61
[3]
  EC50: 37.9 ± 1.72 µM

## O=C(Cn1cnc2cc(Br)c(Br)cc21)c1c(F)cc(F)cc1F [Compound 4j]
[4]
  EC50: 48.8 ± 9.07 µM
[5]
  EC50: 40.7 ± 1.03 µM
  SI (selectivity index), CCRF-CEM: 1.20
[6]
  EC50: 37.6 ± 3.58 µM
  SI (selectivity index), MCF-7: 1.30
[3]
  EC50: 94.3 ± 6.47 µM

## O=C(Cn1cnc2c(Br)cc(Br)cc21)c1ccccc1 [Compound 5a]
[4]
  EC50: 57.9 ± 0.88 µM
[5]
  EC50: 183 ± 7.84 µM
  SI (selectivity index), CCRF-CEM: 0.32
[6]
  EC50: 28.4 ± 1.11 µM
  SI (selectivity index), MCF-7: 2.04
[3]
  EC50: 81.2 ± 6.68 µM

## O=C(Cn1cnc2c(Br)cc(Br)cc21)c1ccc(F)cc1 [Compound 5b]
[4]
  EC50: 49.2 ± 10.6 µM
[6]
  EC50: 45.93 ± 0.36 µM
  SI (selectivity index), MCF-7: 1.07
[3]
  EC50: 84.5 ± 3.09 µM

## O=C(Cn1cnc2c(Br)cc(Br)cc21)c1ccc(Cl)cc1 [Compound 5c]
[4]
  EC50: 39.1 ± 8.41 µM
[5]
  EC50: 42.5 ± 8.36 µM
  SI (selectivity index), CCRF-CEM: 0.92
[6]
  EC50: 30.4 ± 2.31 µM
  SI (selectivity index), MCF-7: 1.29
[3]
  EC50: 46.7 ± 1.2 µM

## O=C(Cn1cnc2c(Br)cc(Br)cc21)c1ccc(Br)cc1 [Compound 5d, 1-(4-bromophenyl)-2-(4,6-dibromo-1H-benzimidazol-1-yl)ethanone]
[4]
  EC50: 45.1 ± 5.73 µM
[5]
  EC50: 50.5 ± 1.52 µM
  SI (selectivity index), CCRF-CEM: 0.89
[6]
  EC50: 27.8 ± 2.61 µM
  SI (selectivity index), MCF-7: 1.62
[3]
  EC50: 50.9 ± 2.84 µM

## O=C(Cn1cnc2c(Br)cc(Br)cc21)c1ccc(Cl)cc1Cl [Compound 5e]
[4]
  EC50: 34.4 ± 7.83 µM
[5]
  EC50: 38.4 ± 1.39 µM
  SI (selectivity index), CCRF-CEM: 0.89
[6]
  EC50: 27.4 ± 1.57 µM
  SI (selectivity index), MCF-7: 1.25
[3]
  EC50: 46 ± 3.42 µM

## O=C(Cn1cnc2c(Br)cc(Br)cc21)c1ccc(Cl)c(Cl)c1 [Compound 5f]
[4]
  EC50: 43.2 ± 12.1 µM
[5]
  EC50: 40.6 ± 2.39 µM
  SI (selectivity index), CCRF-CEM: 1.06
[6]
  EC50: 32.8 ± 1.88 µM
  SI (selectivity index), MCF-7: 1.32
[3]
  EC50: 40 ± 5.78 µM

## O=C(Cn1cnc2c(Br)cc(Br)cc21)c1c(Cl)cc(Cl)cc1Cl [Compound 5g, 2-(4,6-dibromo-1H-benzimidazol-1-yl)-1-(2,4,6-trichlorophenyl)ethanone]
[4]
  EC50: 26.9 ± 1.62 µM
[5]
  EC50: 26.6 ± 0.31 µM
  SI (selectivity index), CCRF-CEM: 1.01
[6]
  EC50: 24 ± 2.33 µM
  SI (selectivity index), MCF-7: 1.12
[8]; 30 µM, annexin V-FITC/PI
  cells in late apoptosis: 32%
[8]; 45 µM
  induction of apoptosis: induced apoptosis effectively
[8]; 45 µM, annexin V-FITC/PI
  percent of apoptotic cells: 75.6%
[3]
  EC50: 41.3 ± 3.2 µM

## O=C(Cn1cnc2c(Br)cc(Br)cc21)c1ccc(F)cc1F [Compound 5h]
[5]
  EC50: 51.2 ± 1.06 µM
  SI (selectivity index), CCRF-CEM: 0.89
[6]
  EC50: 37 ± 2.15 µM
  SI (selectivity index), MCF-7: 1.23
[3]
  EC50: 61.26 ± 0.45 µM

## O=C(Cn1cnc2c(Br)cc(Br)cc21)c1cc(F)ccc1F [Compound 5i]
[4]
  EC50: 48.07 ± 0.04 µM
[5]
  EC50: 46.2 ± 3.24 µM
  SI (selectivity index), CCRF-CEM: 1.04
[6]
  EC50: 44.8 ± 6.33 µM
  SI (selectivity index), MCF-7: 1.07
[3]
  EC50: 82.7 ± 10.6 µM

## O=C(Cn1cnc2c(Br)cc(Br)cc21)c1c(F)cc(F)cc1F [Compound 5j, 2-(4,6-dibromo-1H-benzimidazol-1-yl)-1-(2,4,6-trifluorophenyl)ethanone]
[4]
  EC50: 61 ± 5.64 µM
[5]
  EC50: 34.4 ± 2.3 µM
  SI (selectivity index), CCRF-CEM: 1.77
[6]
  EC50: 42.2 ± 3.95 µM
  SI (selectivity index), MCF-7: 1.45
[8]; 45 µM
  induction of apoptosis: induced apoptosis effectively
[3]
  EC50: 85.4 ± 3.16 µM
